Source: ChEMBL document CHEMBL1152055, “Synthesis and biological evaluation of four stereoisomers of PDMP-analogue, N-(2-decylamino-3-hydroxy-3-phenylprop-1-yl)--valienamine, and related compounds” (Bioorg Med Chem Lett, 1997)

Columns and labels:
[1] = biological target: T1, Ceramide glucosyltransferase (Homo sapiens, UniProt Q16739); assay: Compound tested for inhibitory activity against glucosylceramide synthase enzyme at a concentration of 1.0*10e-4M; no inhibitory activity
T1 sequence (Q16739 whole entry): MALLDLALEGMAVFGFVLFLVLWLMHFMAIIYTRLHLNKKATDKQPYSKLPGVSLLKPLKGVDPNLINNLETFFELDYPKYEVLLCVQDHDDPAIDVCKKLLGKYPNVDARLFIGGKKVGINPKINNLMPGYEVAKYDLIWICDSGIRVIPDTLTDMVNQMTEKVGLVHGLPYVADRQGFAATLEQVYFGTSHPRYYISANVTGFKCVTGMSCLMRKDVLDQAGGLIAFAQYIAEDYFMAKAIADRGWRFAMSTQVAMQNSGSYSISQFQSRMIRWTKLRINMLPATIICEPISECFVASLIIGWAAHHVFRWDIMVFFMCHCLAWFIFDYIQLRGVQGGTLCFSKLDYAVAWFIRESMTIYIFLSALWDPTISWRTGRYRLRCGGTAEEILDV

[2] = biological target: T2, Lysosomal acid glucosylceramidase (Mus musculus, UniProt P17439); assay: Compound tested for inhibitory activity against beta-glucocerebrosidase enzyme
T2 sequence (P17439 whole entry): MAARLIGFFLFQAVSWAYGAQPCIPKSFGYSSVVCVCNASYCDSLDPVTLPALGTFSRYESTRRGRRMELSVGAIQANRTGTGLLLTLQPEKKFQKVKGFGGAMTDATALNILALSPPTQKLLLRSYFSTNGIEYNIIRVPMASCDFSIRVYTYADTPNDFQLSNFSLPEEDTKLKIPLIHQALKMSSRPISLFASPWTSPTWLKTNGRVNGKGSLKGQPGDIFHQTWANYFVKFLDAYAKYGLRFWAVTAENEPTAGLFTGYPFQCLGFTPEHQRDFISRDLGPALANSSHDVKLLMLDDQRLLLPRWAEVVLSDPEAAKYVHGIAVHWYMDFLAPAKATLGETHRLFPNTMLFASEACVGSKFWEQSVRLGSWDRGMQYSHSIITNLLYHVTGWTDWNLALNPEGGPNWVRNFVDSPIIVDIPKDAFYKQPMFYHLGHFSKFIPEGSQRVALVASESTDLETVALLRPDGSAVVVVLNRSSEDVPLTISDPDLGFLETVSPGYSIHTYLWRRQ

[3] = biological target: T2, Lysosomal acid glucosylceramidase; assay: Compound tested for inhibitory activity against beta-glucocerebrosidase enzyme at a concentration of 1.0*10e-4M; no inhibitory activity
[4] = biological target: T1, Ceramide glucosyltransferase; assay: Compound tested for inhibitory activity against glucosylceramide synthase enzyme

IC50 [1]	IC50 [2]	IC50 [3]	IC50 [4]	Compound
No inhibition	0.7 µM	–	–	CCCCCCCCCC(=O)N[C@H](CN[C@@H]1C=C(CO)[C@@H](O)[C@H](O)[C@@H]1O)[C@H](O)c1ccccc1
No inhibition	–	No inhibition	–	CCCCCCCCCC(=O)N[C@H](CN[C@H]1C=C(CO)[C@@H](O)[C@H](O)[C@@H]1O)[C@H](O)c1ccccc1
No inhibition	0.3 µM	–	–	CCCCCCCCCC(=O)N[C@@H](CN[C@@H]1C=C(CO)[C@@H](O)[C@H](O)[C@@H]1O)[C@@H](O)c1ccccc1
No inhibition	0.7 µM	–	–	CCCCCCCCCC(=O)N[C@H](CN[C@@H]1C=C(CO)[C@@H](O)[C@H](O)[C@@H]1O)[C@@H](O)c1ccccc1
No inhibition	0.5 µM	–	–	CCCCCCCCCC(=O)N[C@@H](CN[C@@H]1C=C(CO)[C@@H](O)[C@H](O)[C@@H]1O)[C@H](O)c1ccccc1
–	–	No inhibition	23 µM	CCCCCCCCCC(=O)N[C@H](CN1CCOCC1)[C@H](O)c1ccccc1
No inhibition	5 µM	–	–	CCCCCCCCCC(=O)N[C@@H](CNC1CC(CO)C(O)C(O)C1O)[C@H](O)c1ccccc1 (stereo not given in full)
No inhibition	20 µM	–	–	CCCCCCCCCC(=O)N[C@@H](CNC1CC(CO)C(O)C(O)C1O)[C@@H](O)c1ccccc1 (stereo not given in full)
No inhibition	7 µM	–	–	CCCCCCCCCC(=O)N[C@H](CNC1CC(CO)C(O)C(O)C1O)[C@@H](O)c1ccccc1 (stereo not given in full)
No inhibition	10 µM	–	–	CCCCCCCCCC(=O)N[C@H](CNC1CC(CO)C(O)C(O)C1O)[C@H](O)c1ccccc1 (stereo not given in full)
